Test results taken from patent publication US20260284082A1, “TARGETING THE PANX1-P2Y2R-TRPV4 PATHWAY TO TREAT LUNG ISCHEMIA-REPERFUSION INJURY” (UNIVERSITY OF VIRGINIA PATENT FOUNDATION, priority 2023, published 2026).

Key:
[1] = test system: murine primary pulmonary microvascular endothelial cells (PMVECs); assay: Proinflammatory cytokine release from murine PMVECs after hypoxia-reoxygenation; format: cell-based; conditions: 6 h hypoxia + 4 h reoxygenation, AR-C 10 mM, 5 μM
Procedure: We used 6 hours hypoxia followed by 4 hours normoxia/reoxygenation (HR) in murine primary pulmonary microvascular endothelial cells (PMVECs) as a surrogate model of lung IR. Control cells were exposed to 10 hours normoxia (N). PMVECs were treated with vehicle or P2Y2R inhibitor AR-C ([…], 6 hrs). The concentrations of chemokine (C—X—C motif) ligand 1 (CXCL1) and monocvte chemoattractant protein-1 (MCP-1) in the culture media was measured using a mouse keratinocyte-derived chemokine (KC)/CXCL1 Quantikine ELISA kit (R&D Systems, Minneapolis, MN) and multiplex cytokine panel assay (Bio-Rad Laboratories, Hercules, CA), respectively. KC and MCP-1 levels were increased in PMVECs exposed to HR. Treatment of PMVECs with P2Y2R inhibitor AR-C reduced the levels of KC (FIG. 13A) and MCP-1 (FIG. 13B) in the culture media.

[2] = test system: human PMVECs; assay: Baseline Ca2+ signaling in human PMVECs exposed to acute HR (Calbryte 520); format: cell-based; conditions: ARC 10 μM; 1 h hypoxia + 10 min reoxygenation
Procedure: Exposure of PMVECs to acute HR and Ca^2+ imaging in PMVECs: Primary human and murine pulmonary microvascular endothelial cells (PMVECs; Cell Biologics, Chicago, IL) were cultured on gelatin-coated flasks in endothelial cell medium (Cell Biologics). For acute HR exposure, PMVECs were washed with PBS, and serum-free/glucose-free endothelial cell medium was added. PMVECs were placed in a humidified, sealed hypoxia chamber (Billups-Rothenberg, San Diego, CA), whereupon the chamber was flushed with 95% nitrogen/5% CO2 for 20 minutes and placed in a 37° C. incubator to initiate hypoxia. After 1 hour of hypoxia, the chamber was opened to terminate hypoxia. […]
(§1) Ca^2+ imaging in human and mouse PMVECs was performed using an Andor Dragonfly 505 spinning-disk confocal imaging system with Borealis illumination and an Integrated Laser Engine solid-state laser source (Andor Technology, Belfast, UK), coupled with a Leica Dmi8 inverted microscope (Leica) and 63× objective (NA 1.47)^13 Images were acquired at 30 frames per second using Fusion 2.3 (Oxford Instruments, Belfast, UK) and an electron-multiplying CCD camera (iXon888). Calbryte 520 AM was excited at 488 nm, and emitted fluorescence was captured using a 525/50 bandpass emission filter. […]

[3] = test system: TRPV4EC channels; assay: TRPV4 sparklet activity in human PMVECs exposed to acute HR; format: cell-based; set-up: dose or concentration left out as unconfirmed; conditions: 1 h hypoxia + 10 min reoxygenation
Procedure: TRPV4 sparklets were assessed as increases in fluorescence relative to baseline fluorescence, obtained by averaging 10 quiescent images prior to stimulation. TRPV4 Ca^2+ sparklets were assessed based on previously established methods.^9,11 Average TRPV4 sparklet activity is defined as NPO, where N is the number of TRPV4 channels per site and PO is the open-state probability of the channel. NPO was calculated using the Single Channel Search module of Clampfit. quantal amplitudes derived from all-points histograms (0.3 AF/F0 for Fluo-4-loaded Pas),^12 and the following equation: NPO=(Tlevel1+2Tlevel2+3Tlevel3+4Tlevel4)/Ttotal, where T represents the dwell time at each quantal level and Ttotal is the total recording duration. […]
as §1

[4] = test system: lung IRI; conditions: wild-type mice pretreated, left hilar ligation model; 1 mg/kg intravenous dose; cited from earlier work

Cc1ccc2c(c1)C=Cc1cc(C)ccc1C2c1cn(Cc2ccc(C(=O)Nc3nn[nH]n3)o2)c(=O)[nH]c1=S [ARC, AR-C 118925XX]
KC level in the culture media [1]: reduced
MCP-1 level in the culture media [1]: reduced
HR-induced increase in baseline endothelial Ca signaling [2]: blocked
HR-induced increase in TRPV4EC sparklets [3]: blocked

O=C(NC1(c2ccccc2)CC1)c1c(CN2CCC(N3CCCCC3)CC2)c(-c2cccc(C(F)(F)F)c2)nc2cc(Br)ccc12 [GSK219, GSK2193874]
lung IRI [4]: significant attenuation
